Here are results for eight compounds from patent US20230414583A1, “LYSERGIC ACID DERIVATIVES WITH MODIFIED LSD-LIKE ACTION” (Mind Medicine, Inc., priority 2022, published 2023).

In data set [1] the test system is 5-HT2A. Conditions: cited from earlier work.
In data set [2] the test system is LSD-trained rats. To be noted: even at 20× of the full active dose of LSD; cited from earlier work.
Data set [3] in a line: Microsomal assays: stability in pooled human liver microsomes, LC-MS/MS. The class given is in vitro ADME. Conditions: 10 nM; for microsomal metabolism compared with LSD: incubations over 4 hours. An excerpt:
Given its fast metabolism, it is likely not active orally but is a candidate for intravenous administration in particular as an infusion and expected to then produce short-lasting or also maintained effects that can rapidly be terminated upon stopping the infusion. […] However, it is important to note that in addition to the metabolic profile, other factors such as 5-HT2A receptor activity are important to consider when choosing promising drug candidates for therapeutic applications. In addition, in vivo experiments are necessary further assessing the clinical pharmacokinetics of these substances.
Microsomal assays: The objective of this experiment was the investigation of the microsomal stability of 10 novel lysergamides (FIGS. 13A-13J) in order to make predictions about whether any of the derivatives may be clinically faster metabolized than lysergic acid diethylamide (LSD). The test substances were incubated with human liver microsomes for 4 hours and the metabolic degradation was then measured by liquid chromatography-tandem mass spectrometry (LC-MS/MS). In brief, LSD and the derivatives (10 nM) were incubated in the presence of pooled human liver microsomes for 4 hours. The microsomal reaction mixture contained 464.5 μL phosphate-buffered saline, 25 μL nicotinamide adenine dinucleotide phosphate (NADPH) solution A (1:20 dilution, #451220, lot: 0344003; Corning Life Sciences B.V) and 5 μL Solution B (1:100 dilution, #451200, lot: 0342002; Corning Life Sciences B.V), 5 μL liver microsomes (150 donors, 20 mg/mL, #452117, lot: 38296; Corning Life Sciences B.V., Amsterdam, The Netherlands), and 0.5 μL test drugs (10 μM). Samples (50 μL) were taken 2 minutes prior to microsomal incubation (t0) and 0.5, 1, 2, 3, and 4 hours after initiation of the microsomal reaction. A total of five assays were performed per substance. The amount of the test substances (peak area) exposed to human liver microsomes for 4 hours was compared relative to a concentration of 10 nM (t0, 100% peak area). Linear regression slopes were plotted to compare the degradation of the derivatives and LSD. None of the TRALA derivatives were metabolized to LSD (data not shown).
On the technique in general: Microsomes from liver hold many membrane-bound enzymes, among them those of drug oxidation.

The nature of data set [4]: Chemical stability under basic and acidic conditions (HPLC MS). It counts as physicochemical. How it is done:
General preparation and equipment information: NMR was performed on a Bruker NMR (^1H: 300 MHz and ^19F: 282 MHz) at ambient temperature. Reaction controls were performed by silica gel TLC (F254; UV detection) and HPLC UV & MS (Agilent 1100, UV at 210 nm and 313 nm, Waters SQD, ESI+ mode) under basic as well as acidic conditions (solvents: A: either 0.02% NH4OH in water or 0.05% TFA in water, B: acetonitrile, gradients from 5% to 95% B, reversed phase C18 HPLC column). All reactions, workups, drying steps, and storing were performed under exclusion of daylight and of electric light such as neon lighting or light bulbs containing wavelengths of the blue and/or UV spectrum. Working was performed in either light-excluding lab ware or under orange to red light (UV free LED). This helps to prevent decompositions of the compounds. Further on, reactions und some purifications can be performed under protecting gas such as Nitrogen or Argon to further protect the compounds from decompositions. Purifications were performed by using silica gel column chromatography and organic solvents such as mixtures of an alcohol (MeOH or EtOH) and dichloromethane, and in some cases, 0.1% to 1% of NH4OH 25% or 0.1% to 1% NEt3 was added. In a similar way, preparative TLC (silica gel) using the aforementioned solvents was applied as well. Working safety: a suitable personal protecting ware common to lab works and fume hoods with a movable glass window were used. Possible contaminations on e.g., gloves or surfaces can quickly be detected by having a long-wave UV lamp (e.g., 366 nm) at hands, preventing further distribution of active materials. Typically, compounds bearing an intact lysergic acid amide substructure, show a strong blueish fluorescence even in trace amounts. Quick deactivation of the potential central effects of these compounds can be performed by using, e.g., a mixture of bleach and diluted alcohol.
9,10-Didehydro-N-ethenyl-N-ethyl-6-methylergoline-8R-carboxamide (TRALA-12), 21. […]

The conditions of data set [5]: humans; psilocin: unconjugated, average; cited from earlier work.
The conditions of data set [6]: 5R,8S epimer; cited from earlier work.

As to `CCN(CC)C(=O)[C@@H]1C=C2c3cccc4[nH]cc(c34)C[C@H]2NC1` [6-Nor-LSD, 9,10-Didehydro-N,N-diethylergoline-8R-carboxamide], in data set [1] (Luethi et al., 2019), the “binding to 5-HT2A in more recent binding assays” value is given as “high-potency binding to 5-HT2A”. Moreover, the “loss of 5-HT2A binding affinity on N6-demethylation of LSD” value in data set [1] (relative to LSD (Hoffmann, 1987)) is on record as 30 factor. The “ability to substitute in LSD-trained rats” value in data set [2] was “loss of its 5-HT2A binding affinity (factor 30) and the ability to substitute in LSD-trained rats”. For `C=CN(CC)C(=O)[C@@H]1C=C2c3cccc4[nH]cc(c34)C[C@H]2N(C)C1` [Compound 2l, 9,10-Didehydro-N-ethenyl-N-ethyl-6-methylergoline-8R-carboxamide], in data set [3], the “time after which the majority of substance was metabolized” value was 30 min and the “microsomal metabolism compared with LSD” value is “significantly faster metabolized than LSD”. In addition, in data set [4] (0.02% NH4OH in water or 0.05% TFA in water / acetonitrile), the “stability against basic or acidic HPLC MS conditions” value is “stability against these conditions”. In the case of `CCN(C=C(F)F)C(=O)[C@@H]1C=C2c3cccc4[nH]cc(c34)C[C@H]2N(C)C1` [Compound 2m, 9,10-Didehydro-N-(2,2-difluoroethenyl)-N-ethyl-6-methylergoline-8R-carboxamide], the “chemical stability, basic conditions” value in data set [4] (hydrolyzed sample stored at ambient temperature overnight) is reported as “remained intact”. Besides, in data set [4] (hydrolyzed sample with excess tartaric acid, stored for 24h), the “chemical stability, acidic conditions” value is given as “the same product distribution as after initial hydrolysis of the reaction”. As for `C=C(F)CN1C[C@H](C(=O)N(CC)CC)C=C2c3cccc4[nH]cc(c34)C[C@H]21` [Compound 12c, 9,10-Didehydro-N,N-diethyl-6-(2-fluoro-1-propen-3-yl)ergoline-8R-carboxamide], the “microsomal metabolism compared with LSD” value in data set [3] is “significantly faster metabolized than LSD”. The same measure, in the same setting: for `C#CCN(CC)C(=O)[C@@H]1C=C2c3cccc4[nH]cc(c34)C[C@H]2N(CCF)C1` [Compound 16a, 9,10-Didehydro-N-ethyl-N-propyn-3-yl-6-(2-fluoroethyl)ergoline-8R-carboxamide] the value was “significantly faster metabolized than LSD”; for `C#CCN(CC)C(=O)[C@@H]1C=C2c3cccc4[nH]cc(c34)C[C@H]2N(CC(=C)F)C1` [Compound 16b, 9,10-Didehydro-N-ethyl-N-propyn-3-yl-6-(2-fluoro-1-propen-3-yl)ergoline-8R-carboxamide], “significantly faster metabolized than LSD”. Regarding `CCN(CC)C(=O)[C@@H]1C=C2c3cccc4[nH]cc(c34)C[C@H]2N(C)C1` [LSD, 9,10-Didehydro-N,N-diethyl-6-methylergoline-8R-carboxamide], the plasma half-life result in data set [5] is “approximately 4 hours”. For `CCN(CC)C(=O)[C@H]1C=C2c3cccc4[nH]cc(c34)C[C@H]2N(C)C1` [iso-LSD], the psychoactivity in humans entry in data set [6] is “inactive up to several milligrams”.
